Data taken from patent US20020052323A1, “Quinoline-(C=O)-(multiple amino acids)-leaving group compounds for pharmaceutical compositions and reagents” (priority 2000, published 2002).
Structures can show the parent of a compound that is named as a salt. Peptide text beside a SMILES is read from it. * marks the point of attachment. Cbz = O=C(OCc1ccccc1)*; CH2F = FC*

Columns and labels:
WEHI 231 cells [1] = test: TUNEL analysis of Actinomycin D induced apoptosis, flow cytometry; format: cell-based, murine; design: key to rank of result in TUNEL analysis: ***: Best result; **: Second best result; *: Third best result; conditions: for effective concentration in TUNEL test: blind test by TUNEL method, conclusions; for efficacy in TUNEL test, in words: 10 sequences in a blind test
Method: Flow Cytometry measures the percent of the cell population undergoing apoptosis. The effect of the inhibitors is identified as a reduction in the percent of the cell population undergoing apoptosis. Cell Type: WEHI 231 cells, murine immature B cells (suspension) Plate cells at 2×10^5/ml in 10 ml of media (Total 2×10^6 cells) Preincubate caspase inhibitors (Formula I) one hour before inducing apoptosis. […] Actinomycin D (ActD) stock is 1 μg/μl add 10 μl/10 ml)-Treat 4 h Process for Tunel Analysis. (See Table 2 below). […] Cell Processing for Tunel Analysis and Flow Cytometry. Centrifuge cells at 300× g for 5 min and aspirate supernatant. Resuspend cells in 5.0 ml of cold 1× PBS, Spin at 300× g, 5 min. Aspirate supernatant. […] Incubate for 15 min. on ice. […] Aspirate supernatant. […] Aspirate supernatant. […] Aspirate supernatant. Resuspend the cell in 300 μl of cold IX PBS, Transfer to a 1.5 ml tube. […] Store at −20° C. at least 18 hr prior to Tunel Labeling Fixed cells are stable for at least 30 days. Process fixed cells for Tunel using the Apo-BRDU kit from Pharmingen (San Diego, Calif.) following the manufacturer's instructions and analyze by flow cytometry.

WEHI 231 cells [2] = test: TUNEL analysis, inhibitor alone (toxicity control); format: cell-based, murine; conditions: no ActD
Method: Flow Cytometry measures the percent of the cell population undergoing apoptosis. The effect of the inhibitors is identified as a reduction in the percent of the cell population undergoing apoptosis. Cell Type: WEHI 231 cells, murine immature B cells (suspension) Plate cells at 2×10^5/ml in 10 ml of media (Total 2×10^6 cells) Preincubate caspase inhibitors (Formula I) one hour before inducing apoptosis. […] [table] Process fixed cells for Tunel using the Apo-BRDU kit from Pharmingen (San Diego, Calif.) following the manufacturer's instructions and analyze by flow cytometry.

caspase 1 = molecular target: T1, caspase 1 (Homo sapiens, UniProt P29466); test: Caspase inhibition assay, AcYVAD-AFC substrate; format: biochemical; conditions: from figure, antilog of log concentration; read-out: IC50 caspase 1
T1 sequence (P29466 120-297 limits assumed): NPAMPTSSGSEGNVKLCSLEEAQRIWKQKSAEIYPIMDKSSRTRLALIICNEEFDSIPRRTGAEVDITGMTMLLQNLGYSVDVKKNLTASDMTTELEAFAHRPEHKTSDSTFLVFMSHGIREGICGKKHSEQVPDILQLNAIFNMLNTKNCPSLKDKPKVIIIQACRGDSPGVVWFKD
T1 sequence (P29466 317-404 limits assumed): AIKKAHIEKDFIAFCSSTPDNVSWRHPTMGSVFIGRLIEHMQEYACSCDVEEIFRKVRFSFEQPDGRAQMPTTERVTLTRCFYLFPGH
Method: The determination of the IC50/μm was performed according to Gary Johnson, 9401 James Avenue, Suite No. 155, Bloomington, Minn. 55431.
Caspase Inhibition Assay:—Caspases are diluted in caspase buffer, 0.1 M HEPES, 10% sucrose 0.1% CHAPS and 10 mM DTT, pH 7.5. Caspases 1, 3, and 8 are used at a concentration of 144 U/well and caspase 9 is used at 4.8 U/well in a 96 well fluorometric plate.
Inhibitors are initially dissolved in DMSO at 10 mg/ml and further dilutions can be prepared in caspase buffer. The inhibitors are generally tested at concentrations ranging from 50 uM to 0.005 uM. These are usually prepared as 2 fold or 2.5 fold decreasing dilutions. The enzyme approximately 144 U in 120 ul caspase buffer is added to 380 ul caspase buffer containing the appropriate concentration on the inhibitor and incubated on ice for 15 min. The reactants 200 ul are then added to a black fluorimetric plate and incubated in the fluorometer at 37° C. for 30 min.
During the incubation period appropriate coumarin substrates are prepared by dilution in DMSO and caspase buffer to provide a 0.417 mM working stock. AcYVAD-AFC is used for caspase 1, AcDEVD-AFC for caspase 3. AcIETD-AFC for caspase 8 and Ac-LEHD-AFC for capsase 9. Twenty five microliters of the stock solution are added to 200 ul of the caspase and inhibitor test solutions to give a final substrate concentration of 0.046 mM.
The fluorometer is set to 400 nm excitation and 505 nm emission. The enzyme-inhibitor-substrate is allowed to incubate at for an additional twenty min. and the response is read as fluorescence units vs inhibitor concentration. The responses are plotted as percent of the maximum response (response in the absence of inhibitor) for each concentration of the inhibitor. The inhibitory activity for each inhibitor is described as the concentration of inhibitor that produces a 50% inhibition of the maximum response (IC50).

[3] = 1 μM inhibitor + ActD, WEHI 231, lower = greater inhibitory activity
[4] = 10 μM inhibitor + ActD, WEHI 231
[5] = 20 μM inhibitor + ActD, WEHI 231
[6] = 30 μM inhibitor + ActD, WEHI 231
[7] = 40 μM inhibitor + ActD, WEHI 231
[8] = 50 μM inhibitor + ActD, WEHI 231
[9] = 100 μM inhibitor + ActD, WEHI 231
[10] = markers in structure designation table

IC50 (caspase 1) [nM] | Molecule | % non-viable cells (WEHI 231 cells [1]; [3]) [%] | % non-viable cells (WEHI 231 cells [1]; [4]) [%] | % non-viable cells (WEHI 231 cells [1]; [5]) [%] | % non-viable cells (WEHI 231 cells [1]; [6]) [%] | % non-viable cells (WEHI 231 cells [1]; [7]) [%] | % non-viable cells (WEHI 231 cells [1]; [8]) [%] | % non-viable cells (WEHI 231 cells [1]; [9]) [%] | effective concentration in TUNEL test (WEHI 231 cells [1]) | % non-viable cells, inhibitor alone (WEHI 231 cells [2]; 20 μM Inh alone) [%] | % non-viable cells, inhibitor alone (WEHI 231 cells [2]; 100 μM Inh alone) [%] | efficacy in TUNEL test, in words (WEHI 231 cells [1]) | rank of result in TUNEL analysis (WEHI 231 cells [1]; Table 3 markers) | rank of result in TUNEL analysis (WEHI 231 cells [1]; [10])
– | 4HQ-Ala-Asp(OMe)—CH2—OPh [Inhibitor H^1] | 81 | 92 | 88 | 91 | 85 | 82 | 83 | not effective | 3 | 2 | – | – | –
– | COC(=O)CC(NC(=O)CCNC(=O)c1ccc2ccccc2n1)C(=O)CF (stereo not drawn) [Inhibitor A^1, Q-βAla-Asp(OMe)-FMK] | 62 | 57 | 42 | 40 | 15 | 32 | 9 | 40 µM | 5 | 5 | – | – | –
– | COC(=O)CC(NC(=O)C(C)NC(=O)c1ccc2ccccc2n1)C(=O)CF (stereo not drawn) [Inhibitor D^1, Q-Ala-Asp(OMe)-FMK] | 88 | 67 | 16 | 2 | 1 | 2 | 1 | 20 µM | 6 | 8 | most efficacious | D^1* | Q-Ala-Asp(OMe)-FMK*
– | COC(=O)CC(NC(=O)C(C)NC(=O)C(NC(=O)OCc1ccccc1)C(C)C)C(=O)COc1c(F)cccc1F (stereo not drawn) [Inhibitor G^1, 2-Val-Ala-Asp(OMe)—CH2—OPh] | 56 | 62 | 57 | 52 | 62 | 56 | 8 | 100 µM | 1 | 1 | – | – | –
– | COC(=O)CC(NC(=O)C(NC(=O)c1ccc2ccccc2n1)C(C)C)C(=O)COc1c(F)cccc1F (stereo not drawn) [Inhibitor I^1, Q-Val-Asp(OMe)—CH2—OPh] | 88 | 2 | 3 | 2 | 3 | 2 | 2 | 10 µM | 2 | 53 | most efficacious | I^1*** | Q-Val-Asp(OMe)—CH2—OPh***
~940 | COC(=O)CC(NC(=O)C(CC(C)C)NC(=O)c1ccc2ccccc2n1)C(=O)COc1ccccc1 (stereo not drawn) [Inhibitor J^1, Q-Leu-Asp(OMe)—CH2—OPh] | 88 | 16 | 3 | 2 | 2 | 2 | 3 | 10 µM | 1 | 1 | most efficacious | J^1** | Q-Leu-Asp(OMe)—CH2—OPh**
~624 | COC(=O)CC(NC(=O)[C@@H](NC(=O)[C@@H](N)Cc1c[nH]c2ccccc12)C(C)C)C(=O)COc1ccccc1 (stereo partly drawn) [TFA Trp-V-D(OMe)—CH2—O—Ph TFA] | – | – | – | – | – | – | – | – | – | – | – | – | –
– | COC(=O)CC(NC(=O)C(C)NC(=O)C(NC(=O)OCc1ccccc1)C(C)C)C(=O)CF (stereo not drawn) [Z-VAD-FMK, Benzyloxycarbonyl-Val-Ala-Asp (OMe) fluoromethylketone, reference compound] (Cbz-Val-Ala-Asp(OMe)-CH2F; configuration not given here) | 33 | 64 | 17 | 19 | 12 | 8 | 6 | 20 µM | 3 | 7 | – | – | –
~139 | COC(=O)C[C@H](NC(=O)[C@@H](NC(=O)NCCc1c[nH]c2ccc(OC)cc12)C(C)C)C(=O)COc1c(F)cccc1F [melatonin-V-D(OMe)—CH2—O—Ph, 5-methoxytrytamine-carbonyl-Val Asp(OMe)-α-(2-oxy-2,6-Difluorophenyl) Methyl Ketone] | – | – | – | – | – | – | – | – | – | – | – | – | –
~50 | CC(C)[C@H](NC(=O)c1ccc2ccccc2n1)C(=O)N[C@@H](CC(=O)O)C(=O)COc1ccccc1 [quinoline-(2-carbonyl)-V-D-CH2—OPh] | – | – | – | – | – | – | – | – | – | – | – | – | –
~170 | Bzl-melatonin-V-D(OMe)—CH2—O—Ph | – | – | – | – | – | – | – | – | – | – | – | – | –
– | HQ-Ala-Asp(OMe)—CH2—OPh [Inhibitor E^1] | 29 | 38 | 13 | 25 | 7 | 12 | 10 | 20 µM | 1 | 1 | – | – | –
– | MQ-Ala-Asp(OMe)—CH2—OPh [Inhibitor F^1] | 32 | 35 | 47 | 61 | 36 | 20 | 21 | not effective | 5 | 5 | – | – | –
– | Q-βAla-Asp(OMe)—CH2—OPh [Inhibitor C^1] | 88 | 87 | 72 | 71 | 78 | 68 | 3 | 100 µM | 3 | 4 | – | – | –
~115 | hydroxy Trp-TTP-V-D(OMe)—CH2—O—Ph | – | – | – | – | – | – | – | – | – | – | – | – | –
~38 | hydroxy quinoline-(2-carbonyl)-VD-OPh | – | – | – | – | – | – | – | – | – | – | – | – | –
~460 | indole-(2-carbonyl)-3-V-D(OMe)—CH2—O—Ph | – | – | – | – | – | – | – | – | – | – | – | – | –
